Assay results reported in patent US8629143B2, “Potassium channel modulators” (AbbVie Inc., priority 2009, dated 2014).

Target: T1, KCNQ 2/3 channels (HEK293 cells stably expressing human KCNQ2 and KCNQ3 subunits) (Homo sapiens, UniProt O43525+O43526)
T1 construct: expressed in transfected cells; host or cells: HEK293
Experiment: KCNQ2/3 channel activation, thallium flux FLIPR assay with BTC-AM dye
Format: cell-based
Conditions: for Emax: HEK293, maximum response relative to the response produced by 10 μM retigabine (set at 100%), read-out: Max. %; for EC50: HEK293 cells expressing human KCNQ2 and KCNQ3, thallium flux, FLIPR
Experimental: The following example describes the assay that can be used to identify compounds that activate KCNQ 2/3 channels.
HEK293 cells stably expressing human KCNQ2 and KCNQ3 subunits were seeded in 96-well, black-walled, clear-bottomed, poly-D-lysine coated plates (BD Biosciences, Bedford, Mass.) at a density of 1×10^5 cells per well 24 hours before the assay. On the assay day, BTC-AM dye (Invitrogen, Carlsbad, Calif.) was loaded into the cells by replacing the cell culture medium with 55 μL/well of 3 μg/mL dye in DPBS. Dye loading was allowed to proceed for 2 hours at room temperature and then cells were washed twice with 50 μL/well of assay buffer (in mM: 10 HEPES pH 7.3, 5 glucose, 140 Na-gluconate, 2.5 K-gluconate, 3.6 Ca-gluconate, 2 MgSO4, 0.1 Ouabain) to remove unloaded dye. Cells were incubated in 50 μL of assay buffer before loading onto a FLIPR system (Molecular Devices, Sunnyvale, Calif.). Various concentrations of compounds to be assayed were added to the cells in 50 μL of assay buffer and incubated for 4 minutes. The fluorescence signal was initiated by adding 100 μL of assay buffer containing 6 mM TlNO3 and 10 mM K2SO4. Fluors were excited using the 488-nm line of an argon laser and emission was filtered using a 540±30 nm bandpass filter. Fluorescent signals were recorded for 3 minutes. Sums of the responses over basal responses were plotted versus concentrations of test compounds to obtain an EC50 value. The maximum response for each test compound was determined relative to the response produced by 10 μM retigabine. The maximum response of retigabine at 10 μM was set at 100%.

Compound	Emax [%]	EC50 [nM]
O=C(Nn1nc(-c2ccc(Cl)cc2)c2ccccc2c1=O)[C@@H]1C[C@H]1c1ccccc1 (relative stereo) [Example 120, trans-N-[4-(4-chlorophenyl)-1-oxophthalazin-2(1H)-yl]-2-phenylcyclopropanecarboxamide]	103	500 to 1000
CC(C)c1nn(NC(=O)Cc2ccc(Cl)cc2)c(=O)c2ccccc12 [Example 1, 2-(4-chlorophenyl)-N-(4-isopropyl-1-oxophthalazin-2(1H)-yl)acetamide]	125	100 to 500
O=C(CC12CC3CC(CC(C3)C1)C2)Nn1nc(-c2ccc(Br)cc2)c2ccccc2c1=O [Example 2, 2-(1-adamantyl)-N-[4-(4-bromophenyl)-1-oxophthalazin-2(1H)-yl]acetamide]	193	100 to 500
O=C(Cc1ccc(Cl)cc1)Nn1nc(-c2ccccc2)c2ccccc2c1=O [Example 4, 2-(4-chlorophenyl)-N-(1-oxo-4-phenylphthalazin-2(1H)-yl)acetamide]	157	100 to 500
CC(C)c1nn(NC(=O)Cc2cc(F)cc(F)c2)c(=O)c2ccccc12 [Example 5, 2-(3,5-difluorophenyl)-N-(4-isopropyl-1-oxophthalazin-2(1H)-yl)acetamide]	136	100 to 500
CC(C)c1nn(NC(=O)CC23CC4CC(CC(C4)C2)C3)c(=O)c2ccccc12 [Example 6, 2-(1-adamantyl)-N-(4-isopropyl-1-oxophthalazin-2(1H)-yl)acetamide]	200	< 100
O=C(CC12CC3CC(CC(C3)C1)C2)Nn1nc(-c2ccccc2)c2cccnc2c1=O [Example 7, 2-(1-adamantyl)-N-(8-oxo-5-phenylpyrido[2,3-d]pyridazin-7(8H)-yl)acetamide]	136	1000 to 10000
CC(C)c1nn(NC(=O)CC23CC4CC(CC(C4)C2)C3)c(=O)c2c1C1CCC2CC1 [Example 8, 2-(1-adamantyl)-N-(4-isopropyl-1-oxo-5,6,7,8-tetrahydro-5,8-ethanophthalazin-2(1H)-yl)acetamide]	79	1000 to 10000
O=C(CC12CC3CC(CC(C3)C1)C2)Nn1nc(-c2ccccc2)c2sccc2c1=O [Example 9, 2-(1-adamantyl)-N-(4-oxo-7-phenylthieno[2,3-d]pyridazin-5(4H)-yl)acetamide]	241	500 to 1000
O=C(Cc1cc(F)cc(F)c1)Nn1nc(-c2ccccc2)c2sccc2c1=O [Example 10, 2-(3,5-difluorophenyl)-N-(4-oxo-7-phenylthieno[2,3-d]pyridazin-5(4H)-yl)acetamide]	179	1000 to 10000
O=C(Cc1cc(F)cc(F)c1)Nn1nc(C(F)(F)F)c2ccccc2c1=O [Example 11, 2-(3,5-difluorophenyl)-N-[1-oxo-4-(trifluoromethyl)phthalazin-2(1H)-yl]acetamide]	77	100 to 500
O=C(CC12CC3CC(CC(C3)C1)C2)Nn1nc(C(F)(F)F)c2ccccc2c1=O [Example 12, 2-(1-adamantyl)-N-[1-oxo-4-(trifluoromethyl)phthalazin-2(1H)-yl]acetamide]	169	100 to 500
O=C(Cc1ccc(Cl)cc1)Nn1nc(C(F)(F)F)c2ccccc2c1=O [Example 13, 2-(4-chlorophenyl)-N-[1-oxo-4-(trifluoromethyl)phthalazin-2(1H)-yl]acetamide]	47	100 to 500
O=C(Cc1ccc(F)cc1)Nn1nc(-c2ccccc2)c2c(F)ccc(F)c2c1=O [Example 14, N-(5,8-difluoro-1-oxo-4-phenylphthalazin-2(1H)-yl)-2-(4-fluorophenyl)acetamide]	171	100 to 500
O=C(CC12CC3CC(CC(C3)C1)C2)Nn1nc(-c2ccccc2)c2c(F)ccc(F)c2c1=O [Example 15, 2-(1-adamantyl)-N-(5,8-difluoro-1-oxo-4-phenylphthalazin-2(1H)-yl)acetamide]	140	< 100
